Legend:
[1] = system: high metastatic melanoma B16F10; experiment: Subcutaneous xenograft model of high metastatic melanoma B16F10; assay type: in vivo, C57BL/6 or Bablc mice; conditions: for TGI % (tumor growth inhibition rate): tumor weight
Description: (§1) The method in subcutaneous xenograft tumor was as follows. The cultured specific tumor cells were digested and collected by centrifugation, and washed with sterile physiological saline for two times and then counted. The cell concentration was adjusted to 5×10^6/ml by physiological saline, and 0.2 ml of cell suspension was inoculated to the right armpit of C57BL/6 or Bablc mice. After inoculation, the animals were randomly divided into two groups in next day. Each group had 6-7 mice. After weighing, the animals were dosed once each day to monitor tumor size. When the tumor size reached to a certain size, the mice was weighed and blood was collected from mice orbit and then the mice were killed by removing the neck. The tumor tissue, thymus tissue and spleen tissue were collected and weighed respectively. Finally, the tumor growth inhibition rate was calculated, and the tumor growth inhibition rate was used to evaluate the level of anti-tumor effect.
(§2) In the study of the mechanism of the above models, the method of flow cytometry was adopted in measuring the total cell proportion of T cells of various types. The specific steps were as follows. The samples were treated at first. For blood tissue, the orbital blood was taken. The red cell lysate was used to remove the red blood cells, and then the PBS buffer was used for wash. After being washed, the cells were collected. For the tumor and spleen, the tissues were grinded with a homogenizer, and then diluted with PBS buffer, then filtered by 300 meshes of screen. After the number of cells was counted for each sample, 1×10^6 cells were added into EP tube and stained for flow antibody. After incubation for 1 h on ice, each sample was washed 2 times with PBS buffer. The cell population was analyzed by VERSE flow instrument of BD Company. The total number of cells in tumor tissue was 1×10^5 and the total number of cells in blood and spleen tissues was 1×10^4. The ratio of T cells to total number of cells was analyzed after flow cytometry.

[2] = system: high metastatic melanoma B16F10; experiment: Lung metastasis model of high metastatic melanoma B16F10; assay type: in vivo, C57BL/6 mice; conditions: for Tumor number X ± SD: lung; for TGI % (tumor growth inhibition rate): tumor number
Description: The method in B16F10 lung metastasis model was as follows. The cultured B16F10 tumor cells were digested and centrifuged and washed for two times with sterile physiological saline and then counted. And the cell concentration was adjusted to 2.5×10^6/ml by physiological saline. 0.2 ml of cells were injected into the C57BL/6 mice through the tail vein, and the tumor cells will gather in the lung of the mice. After inoculation, the animals were randomly divided into two groups in next day. Each group had 6-7 mice. After weighing, the animals were dosed once each day. After 3 weeks, the mice were weighed and killed, the lung tissue was collected and weighed, and the number of lung tumors was counted after being fixed by the Bouin's Fluid. Finally, the tumor growth inhibition rate was calculated, and the tumor growth inhibition rate was used to evaluate the level of anti-tumor effect.
as §2

mouse breast cancer EMT6 = experiment: Subcutaneous xenograft model of mouse breast cancer EMT6; assay type: in vivo, C57BL/6 or Bablc mice
Description: as §1

Lewis lung cancer = experiment: Mouse Lewis lung cancer hydrothorax model; assay type: in vivo, C57BL/6 mice; conditions: 10 mg
Description: The method in Lewis lung cancer hydrothorax model was as follows: The subcutaneous xenograft tumor of Lewis lung cancer was homogenized and washed for two times with sterile physiological saline, and the cell concentration was adjusted to 2.5×10^5/ml by physiological saline. 0.2 ml of cells were injected into the thoracic cavity of C57BL/6 mice. After inoculation, the animals were randomly divided into two groups in next day. Each group had 6-7 mice. After weighing, the animals were dosed once each day. Animals were sacrificed when the weight of the animals in the control group suddenly dropped. The liquid in thoracic cavity was extracted with syringe and the volume of fluid was recorded.

mouse colon cancer MC38 = experiment: Subcutaneous xenograft model of mouse colon cancer MC38; assay type: in vivo, C57BL/6 or Bablc mice
Description: as §1

PD-L1 protein [3] = target: T1, PD-L1 protein (Homo sapiens (Human), UniProt Q9NZQ7); experiment: Relieving the inhibition of IFNγ by ligand PD-L1 in human PBMC; assay type: cell-based; conditions: 72 h
T1 sequence (Q9NZQ7 19-290): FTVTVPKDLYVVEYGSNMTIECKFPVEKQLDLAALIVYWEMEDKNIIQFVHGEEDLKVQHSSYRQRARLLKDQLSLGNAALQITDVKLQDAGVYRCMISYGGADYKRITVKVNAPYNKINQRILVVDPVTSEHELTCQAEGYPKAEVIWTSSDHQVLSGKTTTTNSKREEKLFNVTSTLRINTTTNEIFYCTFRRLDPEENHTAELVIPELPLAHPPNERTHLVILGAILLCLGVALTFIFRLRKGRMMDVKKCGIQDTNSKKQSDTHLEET
Description: The expression level of IFNγ can reflect the proliferative activity of T lymphocytes. Using the extracted human PBMC (peripheral blood mononuclear cell), on the basis that T lymphocyte could be activated by the anti-CD3/anti-CD28 antibody, the ligand PD-L1 was added to the inhibit T lymphocyte, the example compounds' capacity of relieving the inhibition by the PD-L1 was investigated.
The specific procedure is as follows. DAKEWE human lymphocyte separation solution (DKW-KLSH-0100) was used to extract PBMC from human whole blood, and PBMC was inoculated into 96 well plate, with 3×10^5 cells per well. […] After 72 h, the expression level of IFNγ in the supernatant was detected by Cisbio IFNγ test kit.

PD-L1 protein [4] = target: T1, PD-L1 protein; experiment: Interaction with PD-L1 protein tested by Biacore (SPR); assay type: binding
Text: Surface plasmon is a kind of electromagnetic wave on the surface of metal, produced by the interaction of photon and electron in free vibration. Surface plasmon resonance (SPR) is an optical phenomenon that occurs on the surface of two kinds of media, which can be induced by photon or electron. The phenomenon of total reflection of light from light dense medium into light scattering medium will form evanescent wave into light scattering medium. When the total reflected evanescent wave meets the plasma wave on the metal surface, the resonance may occur, and the energy of reflected light decreases and the resonance peak appears on the reflected light energy spectrum. This resonance is called the surface plasmon resonance. The incident angle of the surface plasmon resonance is called the SPR angle. The SPR biosensor provides a sensitive, real-time, non-label detection technique for monitoring the interaction of molecules. The sensor detects the change of the SPR angle, and SPR is also related to the refractive index of the metal surface. When an analyte is bond on the surface of the chip, it leads to the change of the refractive index of the chip surface, which leads to the change of the SPR angle. […] In the interaction analysis, the change of SPR angle is recorded on the sensor map in real time. […]

O=C([O-])[C@H](CO)NCc1cc(Cl)c(OCc2cccc(-c3ccccc3)c2Br)cc1OCc1cccnc1.[Na+] [Example 4 sodium salt, (S)-Sodium N-(4-(2-bromo-3-phenylbenzyloxy)-5-chloro-2-(pyridin-3-yl-methyleneoxy)benzyl) serinate]
Tumorweight(g) X ± SD ([1]; 15 mg/kg): 0.93 ± 0.89 g | Body weight (g) Mean ± SD Begin ([1]; 15 mg/kg): 20.3 ± 0.4 g | Body weight (g) Mean ± SD End ([1]; 15 mg/kg): 21.8 ± 2.1 g | TGI % (tumor growth inhibition rate) ([1]; 15 mg/kg): 64.11% | Tumorweight(g) X ± SD ([1]; 45 mg/kg): 2.57 ± 0.85 g | Body weight (g) Mean ± SD Begin ([1]; 45 mg/kg): 20.4 ± 0.9 g | Body weight (g) Mean ± SD End ([1]; 45 mg/kg): 23.8 ± 1.4 g | TGI % (tumor growth inhibition rate) ([1]; 45 mg/kg): 0.23% | proportion of lymphocytes in the spleen samples ([1]; result in words): increase | proportion of tumor-infiltrating lymphocytes ([1]; result in words): increase | CD4+ (%) T lymphocytes in spleen ([1]; spleen, 15 mg): 27.0 ± 1.8% | CD8+ (%) T lymphocytes in spleen ([1]; spleen, 15 mg): 13.6 ± 1.8% | CD3+ (%) tumor-infiltrating T lymphocytes ([1]; tumor, 15 mg): 13.3 ± 6.9% | CD4+ (%) tumor-infiltrating T lymphocytes ([1]; tumor, 15 mg): 7.2 ± 3.4% | CD8+ (%) tumor-infiltrating T lymphocytes ([1]; tumor, 15 mg): 3.9 ± 1.4% | number of lung metastases ([2]; 15 mg/kg dose, result in words): significantly inhibit | Body weight (g) Mean ± SD Begin ([2]; 15 mg/kg): 20.1 ± 0.9 g | Body weight (g) Mean ± SD End ([2]; 15 mg/kg): 21.5 ± 1.2 g | Tumor number X ± SD ([2]; 15 mg/kg): 12 ± 3 | TGI % (tumor growth inhibition rate) ([2]; 15 mg/kg): 42.3% | Body weight (g) Mean ± SD Begin ([2]; 45 mg/kg): 20.3 ± 0.6 g | Body weight (g) Mean ± SD End ([2]; 45 mg/kg): 21.4 ± 0.3 g | Tumor number X ± SD ([2]; 45 mg/kg): 19 ± 15 | TGI % (tumor growth inhibition rate) ([2]; 45 mg/kg): 9.5% | CD3+ percentage of T lymphocyte in mouse blood ([2]; 15 mg): 29.0 ± 3.7% | CD4+ percentage of T lymphocyte in mouse blood ([2]; 15 mg): 17.8 ± 2.4% | CD8+ percentage of T lymphocyte in mouse blood ([2]; 15 mg): 9.6 ± 0.8% | CD3+ percentage of T lymphocyte in mouse blood ([2]; 45 mg): 23.2 ± 3.6% | CD4+ percentage of T lymphocyte in mouse blood ([2]; 45 mg): 14.7 ± 2.5% | CD8+ percentage of T lymphocyte in mouse blood ([2]; 45 mg): 7.6 ± 1.3% | TGI % (tumor growth inhibition rate) (mouse breast cancer EMT6; 1.5 mg/kg): 13.1% | Tumorweight(g) X ± SD (mouse breast cancer EMT6; 1.5 mg/kg): 1.5 ± 0.61 g | Body weight (g) Mean ± SD Begin (mouse breast cancer EMT6; 1.5 mg/kg): 18.4 ± 0.9 g | Body weight (g) Mean ± SD End (mouse breast cancer EMT6; 1.5 mg/kg): 22.0 ± 1.6 g | TGI % (tumor growth inhibition rate) (mouse breast cancer EMT6; 5 mg/kg): 20.2% | Tumorweight(g) X ± SD (mouse breast cancer EMT6; 5 mg/kg): 1.37 ± 0.23 g | Body weight (g) Mean ± SD Begin (mouse breast cancer EMT6; 5 mg/kg): 18.4 ± 0.4 g | Body weight (g) Mean ± SD End (mouse breast cancer EMT6; 5 mg/kg): 21.0 ± 1.6 g | TGI % (tumor growth inhibition rate) (mouse breast cancer EMT6; 10 mg/kg): 22.3% | Tumorweight(g) X ± SD (mouse breast cancer EMT6; 10 mg/kg): 1.34 ± 0.34 g | Body weight (g) Mean ± SD Begin (mouse breast cancer EMT6; 10 mg/kg): 18.4 ± 0.6 g | Body weight (g) Mean ± SD End (mouse breast cancer EMT6; 10 mg/kg): 21.6 ± 1.3 g | TGI % (tumor growth inhibition rate) (mouse breast cancer EMT6; 15 mg/kg): 14.7% | Tumorweight(g) X ± SD (mouse breast cancer EMT6; 15 mg/kg): 1.47 ± 0.65 g | Body weight (g) Mean ± SD Begin (mouse breast cancer EMT6; 15 mg/kg): 18.5 ± 0.4 g | Body weight (g) Mean ± SD End (mouse breast cancer EMT6; 15 mg/kg): 22.0 ± 1.1 g | inhibition effect on mouse breast cancer EMT6 (mouse breast cancer EMT6; dose of 10 mg): 20% | inhibition effect on mouse breast cancer EMT6 (mouse breast cancer EMT6; dose of 15 mg): 22% | hydrothorax incidence rate (Lewis lung cancer): 33% | hydrothorax volume (mean) (Lewis lung cancer): 0.2 mL | hydrothorax incidence rate (Lewis lung cancer; listed as sodium salt of Example 4 compound): 33% | antitumor effect in combination with Cyclophosphamide (CTX) (mouse colon cancer MC38; result in words): synergistic antitumor effect | inhibition effect on subcutaneous xenograft of MC38 (mouse colon cancer MC38; result in words): significant inhibition effect

O=C(O)[C@H](CO)NCc1cc(Cl)c(OCc2cccc(-c3ccccc3)c2Br)cc1OCc1cccnc1 [Example 4, (S)—N-(4-(2-bromo-3-phenylbenzyloxy)-5-chloro-2-(pyridin-3-yl-methyleneoxy)benzyl) serine]
IC50 (PD-L1 protein [3]): 0.18 nM | relief of the inhibition of PD-L1 to expression level of IFNγ (PD-L1 protein [3]; at 10 nM): partially relieved | percentage of lymphocyte in mouse blood ([2]; result in words): increase | TGI % (tumor growth inhibition rate) (mouse colon cancer MC38; 2.5 mg/kg): 102.3% | Tumor weight(g) Mean ± SD (mouse colon cancer MC38; 2.5 mg/kg): 3.25 ± 0.61 g | Body weight (g) Mean ± SD Begin (mouse colon cancer MC38; 2.5 mg/kg, begin): 18.0 ± 0.4 g | Body weight (g) Mean ± SD End (mouse colon cancer MC38; 2.5 mg/kg): 21.9 ± 0.7 g | TGI % (tumor growth inhibition rate) (mouse colon cancer MC38; 5 mg/kg): 12.7% | Tumor weight(g) Mean ± SD (mouse colon cancer MC38; 5 mg/kg): 2.78 ± 0.44 g | Body weight (g) Mean ± SD End (mouse colon cancer MC38; 5 mg/kg): 22.8 ± 0.6 g | TGI % (tumor growth inhibition rate) (mouse colon cancer MC38; 10 mg/kg): 32.7% | Tumor weight(g) Mean ± SD (mouse colon cancer MC38; 10 mg/kg): 2.14 ± 0.78 g | Body weight (g) Mean ± SD End (mouse colon cancer MC38; 10 mg/kg): 21.5 ± 0.8 g | TGI % (tumor growth inhibition rate) (mouse colon cancer MC38; 20 mg/kg): 41.2% | Tumor weight(g) Mean ± SD (mouse colon cancer MC38; 20 mg/kg): 1.87 ± 0.90 g | Body weight (g) Mean ± SD End (mouse colon cancer MC38; 20 mg/kg): 20.9 ± 1.1 g | kd (PD-L1 protein [4]; PBS-P+, pH7.4, 0.01% DMSO, NTA chip): 2.815e-05 s⁻¹ | Kd (PD-L1 protein [4]; unit inferred, read-out: affinity kD value): 0.0203 nM
